Experimental data reported in patent publication US20220274913A1, “PROCESS FOR MANUFACTURING A SUBSTITUTED CYCLOHEXANECARBONITRILE” (SOLVAY SA, priority 2019, published 2022).
Entries after “also recorded” stand apart in the source; their conditions may differ.

Assays:
Assay type in all cases: physicochemical
[1] = Solubility tests of hydrogenated quinones (QH) in solvent mixtures (polar solvent + S-150), synthetic EQ/ETQ working solutions; conditions: for Test level values (theoretical gH2O2/kg of WS), comparison in words: Table 1; for Test level (gH2O2/kg) measured at 60° C. / Test level (gH2O2/kg) measured at 65° C. / Test level (gH2O2/kg) measured at 70° C. / Test level (gH2O2/kg) measured at 50° C. / Test level (gH2O2/kg) measured at 55° C.: 34*QH/240
Experimental: The determination of the QH solubility was performed on synthetic EQ/ETQ working solutions. These quinones mixed in the tested solvents have been hydrogenated to a fixed level and cooled down successively to 3 different temperatures before the measurement (min. 3 hours to stabilize the system between each measurement). The conditions applied for these tests were:
(*) the polar solvents tested were sextate, decanenitrile, 2,2,6-trimethylcyclohexanecarbonitrile (C10A), 2,2,5,6-tetramethylcyclohexanecarbonitrile (C11A) and 1,2,2,4-tetramethylcyclohexylcarbonitrile (C11B). […] In this Figure, Kb stands for the weight partition coefficient of hydrogen peroxide between the water and the working solution (mixture of quinones and organic solvents). It is calculated using the following formula: […]
The maximum solubility of a hydrogenated quinone (QH) in a solvent mixture is directly correlated with the productivity of the working solution. The higher is the QH solubility, the higher will be the theoretical quantity of hydrogen peroxide achievable per kg of WS (Productivity). These theoretical values, designated by the terms “Test level (gH2O2/kg of WS) measured at . . . ” in Table 1, were calculated as follows: […]
1 mole (240 g) ETQH (which actually is the QH in our Examples) per kg of WS will produce 1 mole (34 g) of H2O2 per kg of WS.

[2] = Weight partition coefficient Kb of hydrogen peroxide between the water and the working solution; H2O2 in organic phase
Experimental: (*) the polar solvents tested were sextate, decanenitrile, 2,2,6-trimethylcyclohexanecarbonitrile (C10A), 2,2,5,6-tetramethylcyclohexanecarbonitrile (C11A) and 1,2,2,4-tetramethylcyclohexylcarbonitrile (C11B). […] In this Figure, Kb stands for the weight partition coefficient of hydrogen peroxide between the water and the working solution (mixture of quinones and organic solvents). It is calculated using the following formula:
Kb=(g H2O2/kg aqueous phase)/(g H2O2/kg organic phase)

[3] = TOC in the H2O2 obtained (solubility of the solvent in H2O2); conditions: for Solubility of the solvent in H2O2 (as indicated by level of TOC in the H2O2 obtained): comparison in words, Table 2
[4] = Approx density of polar solvents at ambient temperature
[5] = Polar solvent 30% / Solvesso 150 70%
[6] = Polar solvent 40% / Solvesso 150 60%
[7] = Polar solvent 50% / Solvesso 150 50%
[8] = Polar solvent 60% / Solvesso 150 40%
[9] = Polar solvent 70% / Solvesso 150 30%
[10] = polar solvent 77% / S150 23%, listed as 4MCH-CN

Row | Test level (gH2O2/kg) measured at 60° C. ([1]; polar solvent 50% / S150 50%) [gH2O2/kg] | Test level (gH2O2/kg) measured at 65° C. ([1]; polar solvent 50% / S150 50%) [gH2O2/kg] | Test level (gH2O2/kg) measured at 70° C. ([1]; polar solvent 50% / S150 50%) | H2O2 in OP [2, 5] [g/kg] | H2O2 in OP [2, 6] [g/kg] | H2O2 in OP [2, 7] [g/kg] | H2O2 in OP [2, 8] [g/kg] | H2O2 in OP [2, 9] [g/kg] | TOC in H2O2 [3, 5] [ppm] | TOC in H2O2 [3, 6] [ppm] | TOC in H2O2 [3, 7] [ppm] | TOC in H2O2 [3, 8] [ppm] | TOC in H2O2 [3, 9] [ppm] | Approx density of polar solvents at amb T° [4] [kg/L] | Solubility of the solvent in H2O2 (as indicated by level of TOC in the H2O2 obtained) [3] | Compound | Test level values (theoretical gH2O2/kg of WS), comparison in words [1] | further results
1 |  |  |  |  |  |  |  |  |  |  |  |  |  | ~0.83 |  | CCCCCCCCCC#N [Decanenitrile, decanenitrile, reference compound] |  | Test level (gH2O2/kg) measured at 60° C. ([1]; polar solvent 35% / S150 65%): 8.8 gH2O2/kg; Test level (gH2O2/kg) measured at 65° C. ([1]; polar solvent 35% / S150 65%): 10.1 gH2O2/kg; Test level (gH2O2/kg) measured at 70° C. ([1]; polar solvent 35% / S150 65%): 11.1 gH2O2/kg
2 |  |  |  |  |  |  |  |  |  |  |  |  |  | ~0.94 |  | methyl cyclohexyl acetate [Sextate, reference compound] |  | QH (g/kg) measured at 60° C. ([1]; polar solvent 40% / S150 60%): 52 g/kg; Test level (gH2O2/kg) measured at 60° C. ([1]; polar solvent 40% / S150 60%): 7.4 gH2O2/kg; QH (g/kg) measured at 65° C. ([1]; polar solvent 40% / S150 60%): 60.8 g/kg; Test level (gH2O2/kg) measured at 65° C. ([1]; polar solvent 40% / S150 60%): 8.6 gH2O2/kg; QH (g/kg) measured at 70° C. ([1]; polar solvent 40% / S150 60%): 68 g/kg; Test level (gH2O2/kg) measured at 70° C. ([1]; polar solvent 40% / S150 60%): 9.6 gH2O2/kg

More lines, now with the values behind:

Row | Compound | Test level (gH2O2/kg) measured at 60° C. ([1]; polar solvent 50% / S150 50%) [gH2O2/kg] | Test level (gH2O2/kg) measured at 65° C. ([1]; polar solvent 50% / S150 50%) [gH2O2/kg] | Test level (gH2O2/kg) measured at 70° C. ([1]; polar solvent 50% / S150 50%) | H2O2 in OP [2, 5] [g/kg] | H2O2 in OP [2, 6] [g/kg] | H2O2 in OP [2, 7] [g/kg] | H2O2 in OP [2, 8] [g/kg] | H2O2 in OP [2, 9] [g/kg] | TOC in H2O2 [3, 5] [ppm] | TOC in H2O2 [3, 6] [ppm] | TOC in H2O2 [3, 7] [ppm] | TOC in H2O2 [3, 8] [ppm] | TOC in H2O2 [3, 9] [ppm] | Approx density of polar solvents at amb T° [4] [kg/L] | Solubility of the solvent in H2O2 (as indicated by level of TOC in the H2O2 obtained) [3] | Test level values (theoretical gH2O2/kg of WS), comparison in words [1] | further results
3 | CC1CCCC(C)(C)C1C#N (stereo not shown) [C10A, 2,2,6-trimethylcyclohexanecarbonitrile] | 10.5 | 11.4 | full soluble | 0.9821 | 1.466 | 2.135 | 3.08 | 3.871 | 928 | 1042 | 1248 | 1456 | 1684 | ~0.89 |  | much higher (almost the double in fact) than with sextate or a linear nitrile like decanenitrile | QH (g/kg) measured at 70° C. ([1]; polar solvent 50% / S150 50%): full soluble; Test level (gH2O2/kg) measured at 60° C. ([1]; polar solvent 60% / S150 40%): 15.6 gH2O2/kg; QH (g/kg) measured at 65° C. ([1]; polar solvent 60% / S150 40%): full soluble; Test level (gH2O2/kg) measured at 65° C. ([1]; polar solvent 60% / S150 40%): full soluble; QH (g/kg) measured at 70° C. ([1]; polar solvent 60% / S150 40%): full soluble; Test level (gH2O2/kg) measured at 70° C. ([1]; polar solvent 60% / S150 40%): full soluble
4 | CC1CCC(C)(C)C(C#N)C1C (stereo not shown) [C11A, 2,2,5,6-tetramethylcyclohexanecarbonitrile] | 9.8 | 10.8 | 14.8 gH2O2/kg | 0.919 | 1.271 |  | 2.332 | 2.786 | 281 | 268 | 269 | 274 | 291 | ~0.895 | less soluble in H2O2 than solvent C10A | reach the absolute maximum theoretical value | Test level (gH2O2/kg) measured at 50° C. ([1]; polar solvent 50% / S150 50%): 7.7 gH2O2/kg; Test level (gH2O2/kg) measured at 55° C. ([1]; polar solvent 50% / S150 50%): 8.6 gH2O2/kg; Test level (gH2O2/kg) measured at 50° C. ([1]; polar solvent 77% / S150 23%): 11.9 gH2O2/kg; Test level (gH2O2/kg) measured at 55° C. ([1]; polar solvent 77% / S150 23%): 12.8 gH2O2/kg; QH (g/kg) measured at 60° C. ([1]; polar solvent 77% / S150 23%): complete solubility; Test level (gH2O2/kg) measured at 60° C. ([1]; polar solvent 77% / S150 23%): 16.3 gH2O2/kg; Test level (gH2O2/kg) measured at 60° C. [1, 10]: full soluble; QH (g/kg) measured at 60° C. [1, 10]: full soluble; QH (g/kg) measured at 65° C. ([1]; polar solvent 77% / S150 23%): full soluble; Test level (gH2O2/kg) measured at 65° C. ([1]; polar solvent 77% / S150 23%): full soluble; QH (g/kg) measured at 70° C. ([1]; polar solvent 77% / S150 23%): full soluble; Test level (gH2O2/kg) measured at 70° C. ([1]; polar solvent 77% / S150 23%): full soluble
5 | CC1CCC(C)(C#N)C(C)(C)C1 (stereo not shown) [C11B, 1,2,2,4-tetramethylcyclohexanecarbonitrile] |  |  |  |  | 1.632 | 2.487 | 3.167 | 3.805 |  | 308 | 328 | 280 | 290 |  | less soluble in H2O2 than solvent C10A |  | Test level (gH2O2/kg) measured at 55° C. ([1]; polar solvent 52% / S150 48%): 9.4 gH2O2/kg; Test level (gH2O2/kg) measured at 60° C. ([1]; polar solvent 52% / S150 48%): 10.8 gH2O2/kg; Test level (gH2O2/kg) measured at 65° C. ([1]; polar solvent 52% / S150 48%): 15.1 gH2O2/kg; QH (g/kg) measured at 70° C. ([1]; polar solvent 52% / S150 48%): full soluble; Test level (gH2O2/kg) measured at 70° C. ([1]; polar solvent 52% / S150 48%): full soluble; Test level (gH2O2/kg) measured at 55° C. ([1]; polar solvent 70% / S150 30%): 15.5 gH2O2/kg; QH (g/kg) measured at 60° C. ([1]; polar solvent 70% / S150 30%): complete solubility; also recorded: full soluble; QH (g/kg) measured at 65° C. ([1]; polar solvent 70% / S150 30%): full soluble; Test level (gH2O2/kg) measured at 65° C. ([1]; polar solvent 70% / S150 30%): full soluble; QH (g/kg) measured at 70° C. ([1]; polar solvent 70% / S150 30%): full soluble; Test level (gH2O2/kg) measured at 70° C. ([1]; polar solvent 70% / S150 30%): full soluble
